The test system of series [1] is Liver microsomes. Briefly: Half life in human liver microsomes at 1 uM measured 5 to 60 mins post dose by LC-MS/MS nethod. It is filed as ADME, Microsome. A general note: Liver microsomes are a subcellular fraction often used to study metabolism.
Another series deals with CYP3A4 (Homo sapiens, UniProt P08684). Briefly: (§1) Inhibition of CYP3A4. In kind it is ADME.
A further series deals with Cytochrome P450 3A4 (Homo sapiens, UniProt P08684). The description is as §1. In kind it is ADME.
The next series concerns the target T1, CYP1A2 (Homo sapiens, UniProt P05177).
T1 sequence (P05177 whole entry): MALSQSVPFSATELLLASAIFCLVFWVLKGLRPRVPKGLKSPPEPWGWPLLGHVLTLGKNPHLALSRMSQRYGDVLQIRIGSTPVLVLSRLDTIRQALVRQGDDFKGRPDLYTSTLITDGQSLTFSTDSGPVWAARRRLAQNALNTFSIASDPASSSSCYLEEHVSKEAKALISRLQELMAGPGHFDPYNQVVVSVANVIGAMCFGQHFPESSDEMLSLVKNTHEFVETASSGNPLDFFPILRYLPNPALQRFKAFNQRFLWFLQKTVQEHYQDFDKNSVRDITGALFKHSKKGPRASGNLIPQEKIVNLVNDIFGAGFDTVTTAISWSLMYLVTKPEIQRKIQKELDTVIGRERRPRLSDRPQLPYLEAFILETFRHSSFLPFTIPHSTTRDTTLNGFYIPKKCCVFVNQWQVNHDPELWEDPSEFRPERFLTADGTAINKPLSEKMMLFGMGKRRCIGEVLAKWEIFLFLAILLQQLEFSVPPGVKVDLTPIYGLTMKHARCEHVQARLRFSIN
The experiment in a line: (§2) Inhibition of CYP1A2. In kind it is ADME.

A further series addresses T2, Cytochrome P450 1A2 (Homo sapiens, UniProt P05177).
T2 sequence (P05177 whole entry): T1 sequence (P05177 whole entry)
Described as §2. It is filed as ADME.

The test system of series [2] is Liver microsomes. The experiment in a line: Intrinsic clearance in human liver microsomes assessed per mg protein at 1 uM measured 5 to 60 mins post dose by LC-MS/MS nethod. It is filed as ADME, Microsome.
Another series deals with CYP2D6 (Homo sapiens, UniProt P10635). Briefly: (§3) Inhibition of CYP2D6. In kind it is ADME.
In the next series the target is Cytochrome P450 2D6 (Homo sapiens, UniProt P10635). Described as §3. It is filed as ADME.
In series [3] the target is T3, Nonstructural protein 5A (Hepatitis C virus) (UniProt Q5L478).
T3 sequence (whole entry): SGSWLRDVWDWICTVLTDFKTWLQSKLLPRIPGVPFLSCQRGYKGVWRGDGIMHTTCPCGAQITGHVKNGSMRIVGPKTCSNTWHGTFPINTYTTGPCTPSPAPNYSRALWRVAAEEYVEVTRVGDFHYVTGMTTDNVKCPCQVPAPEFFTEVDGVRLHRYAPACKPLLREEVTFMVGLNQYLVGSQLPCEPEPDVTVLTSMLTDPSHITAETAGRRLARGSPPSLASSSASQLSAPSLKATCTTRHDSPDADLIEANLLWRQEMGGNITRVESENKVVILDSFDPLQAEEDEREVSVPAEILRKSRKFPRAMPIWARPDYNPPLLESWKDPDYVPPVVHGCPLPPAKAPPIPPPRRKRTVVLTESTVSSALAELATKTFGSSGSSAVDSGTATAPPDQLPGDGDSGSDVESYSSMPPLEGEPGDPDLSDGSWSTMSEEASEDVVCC
The experiment in a line: Inhibition of HCV NS5A assessed as antiviral activity against HCV by viral replicon assay. The note with it: Hepacivirus hominis. For orientation: Replicon systems follow genome replication, usually without infectious particles.

A short description of series [4]: Chemical stability in phosphate buffer assessed as compound degradation at pH 7 at 20 degC measured between 2 to 48 hrs during 48 hrs incubation period. It is filed as physicochemical. The note with it: pH 7, 48 h.
Another series concerns PBMC. The experiment in a line: (§4) Cytotoxicity against human PBMC cells. The note with it: pbmc. In kind it is cell-based.
Another series addresses CYP2C9 (Homo sapiens, UniProt P11712). The experiment in a line: (§5) Inhibition of CYP2C9. In kind it is ADME.
The next series addresses Cytochrome P450 2C9 (Homo sapiens, UniProt P11712). Described as §5. In kind it is ADME.
Another series has as its system Vero. Briefly: Cytotoxicity against african green monkey Vero cells. In kind it is cell-based. The note with it: chlorocebus sabaeus.
Series [5] in a line: Cytotoxicity against human HuH7 cells. In kind it is cell-based, Huh-7.
The nature of series [6]: Chemical stability in phosphate buffer assessed as compound degradation at pH 3 at 20 degC measured between 1 to 48 hrs during 48 hrs incubation period. The note with it: pH 3, 48 h.
Series [7] in a line: Cytotoxicity against human primary lymphocytes. In kind it is cell-based. The note with it: lymphocyte.
For another series, the system named is CCRF-CEM. Briefly: Cytotoxicity against human CEM cells. In kind it is cell-based.
Series [8] is described as follows: as §4. In kind it is cell-based. The note with it: PBMC cells.

Each structure is given as a SMILES string.

CYP2C9, sequence (P11712 whole entry): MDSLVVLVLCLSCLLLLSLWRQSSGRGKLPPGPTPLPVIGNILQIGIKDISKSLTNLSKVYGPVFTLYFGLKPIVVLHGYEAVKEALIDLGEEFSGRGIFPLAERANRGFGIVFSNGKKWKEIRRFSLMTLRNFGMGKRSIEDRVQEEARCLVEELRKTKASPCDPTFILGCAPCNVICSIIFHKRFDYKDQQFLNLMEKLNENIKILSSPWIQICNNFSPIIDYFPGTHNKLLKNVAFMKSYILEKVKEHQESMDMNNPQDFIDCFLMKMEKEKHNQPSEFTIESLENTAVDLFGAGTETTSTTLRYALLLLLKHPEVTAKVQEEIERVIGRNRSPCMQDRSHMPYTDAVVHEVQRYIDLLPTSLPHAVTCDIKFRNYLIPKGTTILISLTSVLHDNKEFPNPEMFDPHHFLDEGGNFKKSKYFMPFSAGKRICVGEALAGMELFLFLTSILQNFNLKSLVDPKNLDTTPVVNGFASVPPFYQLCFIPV
Cytochrome P450 2C9, sequence (P11712 whole entry): as above
Cytochrome P450 2D6, sequence (P10635 whole entry): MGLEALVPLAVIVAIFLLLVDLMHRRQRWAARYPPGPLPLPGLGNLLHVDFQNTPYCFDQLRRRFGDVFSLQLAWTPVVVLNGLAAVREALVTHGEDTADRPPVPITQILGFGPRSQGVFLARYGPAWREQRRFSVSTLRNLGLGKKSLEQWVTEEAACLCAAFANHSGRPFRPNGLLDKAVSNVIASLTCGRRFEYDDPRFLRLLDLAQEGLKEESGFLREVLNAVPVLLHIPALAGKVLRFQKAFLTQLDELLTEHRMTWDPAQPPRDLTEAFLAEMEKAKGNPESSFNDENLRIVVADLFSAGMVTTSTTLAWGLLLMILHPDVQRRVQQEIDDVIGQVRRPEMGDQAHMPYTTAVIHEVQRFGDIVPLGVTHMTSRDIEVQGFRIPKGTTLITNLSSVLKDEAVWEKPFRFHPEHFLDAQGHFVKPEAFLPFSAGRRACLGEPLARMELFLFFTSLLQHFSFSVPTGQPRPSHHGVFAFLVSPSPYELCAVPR
CYP2D6, sequence (P10635 whole entry): as above
Cytochrome P450 3A4, sequence (P08684 whole entry): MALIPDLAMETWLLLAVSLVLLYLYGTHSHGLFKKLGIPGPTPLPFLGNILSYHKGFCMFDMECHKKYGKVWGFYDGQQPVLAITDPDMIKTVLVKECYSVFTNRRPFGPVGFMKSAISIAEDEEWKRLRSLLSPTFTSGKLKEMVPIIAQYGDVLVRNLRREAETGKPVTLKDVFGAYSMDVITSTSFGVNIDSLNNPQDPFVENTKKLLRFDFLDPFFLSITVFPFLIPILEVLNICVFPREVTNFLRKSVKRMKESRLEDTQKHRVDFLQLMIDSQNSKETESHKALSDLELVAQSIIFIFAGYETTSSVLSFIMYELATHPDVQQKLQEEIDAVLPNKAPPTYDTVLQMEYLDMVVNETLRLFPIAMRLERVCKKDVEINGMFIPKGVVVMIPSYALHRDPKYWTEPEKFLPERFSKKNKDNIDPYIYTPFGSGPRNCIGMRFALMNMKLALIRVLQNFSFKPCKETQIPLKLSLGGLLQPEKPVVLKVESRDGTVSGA
CYP3A4, sequence (P08684 whole entry): as above

Usually IC90 stands for the concentration at which the effect reaches the 90% level. For orientation: IC50 means the concentration at which inhibition is half-maximal. As a reminder, the EC90 is the concentration at which the effect reaches the 90% level. In general, CC50 refers to the concentration that lowers cell viability or growth by half. The molecule `COC(=O)N[C@H](C(=O)N1CCC[C@H]1c1nc(F)c(-c2ccc(-c3ccc(-c4[nH]c([C@@H]5CCCN5C(=O)[C@@H](NC(=O)OC)C(C)C)nc4F)cc3)cc2)[nH]1)C(C)C` yielded a t1/2 with Liver microsomes [1] of 2.063 h. Moreover, the 90% effect concentration (IC90) at CYP3A4, at CYP1A2, against CYP2D6 and against CYP2C9 was over 100 µM in each case. The IC50 at Cytochrome P450 3A4 was 3.1 µM; at Cytochrome P450 1A2, over 100 µM; on Cytochrome P450 2D6 it was over 100 µM; on Cytochrome P450 2C9, over 100 µM. Moreover, in the series on Liver microsomes [2], the CLint amounted to 5.6 µL/min/mg. The EC90 in [3] stood at 0.0212 nM. The Stability result in series [4] and in series [6] was “Stable” throughout. Also, the CC50 in the series on PBMC was 19 µM; in the series on Vero it was over 100 µM; in series [5], over 1 µM; in the series with CCRF-CEM, 3 µM. Also, the Activity result in series [7] is “Toxic”.

For `COC(=O)N[C@H](C(=O)N1C[C@H](N=[N+]=[N-])C[C@H]1c1ncc(-c2ccc(-c3ccc(-c4cnc([C@@H]5C[C@@H](N=[N+]=[N-])CN5C(=O)[C@@H](NC(=O)OC)C(C)C)[nH]4)cc3)cc2)[nH]1)C(C)C`, the EC90 in series [3] came out at 0.0542 nM. In addition, the values for the 50% cytotoxic concentration (CC50) in [8] and in [5] were over 100 µM and over 1 µM, respectively.

For `COC(=O)N[C@H](C(=O)N1CCC[C@H]1c1nc(Cl)c(-c2ccc(-c3ccc(-c4[nH]c([C@@H]5CCCN5C(=O)[C@@H](NC(=O)OC)C(C)C)nc4Cl)cc3)cc2)[nH]1)C(C)C`, the t1/2 in the series with Liver microsomes [1] came to 1.992 h. Besides, the IC90 on CYP3A4, at CYP1A2, against CYP2D6 and on CYP2C9 was over 100 µM each time. The IC50 against Cytochrome P450 3A4 is 13.8 µM; against Cytochrome P450 1A2 it was over 100 µM; at Cytochrome P450 2D6, over 100 µM; against Cytochrome P450 2C9, 81.6 µM. Moreover, the CLint in the series on Liver microsomes [2] was 5.8 µL/min/mg. Also, the EC90 in series [3] was 0.0114 nM. Also, the Stability entry in [4] and in series [6] was “Stable” in each case. The CC50 with PBMC is 2.8 µM; in the series on Vero, 100 µM; in [5], over 1 µM; with CCRF-CEM it was 12 µM.

For the origin of these results see ChEMBL document CHEMBL2046362, “Synthesis and evaluation of novel potent HCV NS5A inhibitors” (Bioorg Med Chem Lett, 2012).
